Experimental findings from patent US20230097753A1, “ALPHA-HYDROXYLATED FATTY-ACID METABOLITES, MEDICAL USES AND USE AS BIOMARKERS” (UNIVERSITAT DE LES ILLES BALEARS, priority 2020, published 2023) are described below.

Series [1] has as its system HEK293T cells. As to the kind of experiment: Metabolic conversion and uptake of 2-hydroxylated fatty acids in HEK293T cell cultures. It is filed as in vitro ADME, human. The following applies: HEK293T; for Formation of the metabolite from its 2-hydroxylated prodrug in the presence of oxythiamine: prodrug 100 μM, 24 h, 10 mM oxythiamine. As to the method: To describe the metabolic conversion of DHA-H to HPA(C21:5 ω-3), as well as the conversion of LA-H to HDA (C17:2 ω-6), ALA-H to HTA ω-3 (C17:3 ω-3), GLA-H to HTA ω-6 (C17:3 ω-6), ARA-H to NTA (C19:4 ω-6), EPA-H to NPA (C19:5 ω-3), HEK293T (Human Embryonic Kidney Cells 293T) cell cultures were employed, which is an embryonic, non-tumoral cell line, widely used in human metabolism studies under physiological conditions.
HEK293T cells were cultured in Dulbecco's Modified Eagle's Medium (DMEM; Dubelcco's Modified Eagle's Medium, Biowest, France), supplemented with 10% FBS (Fetal Bovine Serum; Gibco, Thermo-Fisher), 2 mM L-Gln, 25 mM D(+)-glucose, 1 mM sodium pyruvate, and penicillin/streptomycin. Mouse neuroblastoma N2a cells were maintained in a 1:1 (v:v) mixture of DMEM and Opti-Mem (Gibco, Thermo-Fisher), supplemented with 5% FBS and penicillin/streptomycin. Both cell lines were incubated in an atmosphere of 5% CO2 at 37° C.
HEK293T cells were incubated with DHA-H and DHA at 10, 30 and 100 μM for 24 hours, and at 30 μM for 6, 48 and 72 hours. These cells were also incubated with LA-H, ALA-H, GLA-H, ARA-H and EPA-H at 100 μM for 24 hours. HEK293T cells were also incubated with oxythiamine in the presence of DHA-H under the same conditions, at final oxythiamine concentrations of 1 and 10 mM. The HEK293T cells were separated from the plates by pipettes with cold phosphate buffer saline solution (PBS). Cells were recovered by centrifugation (1000 xg, 10 min at 4° C.) and washed twice with cold PBS before being frozen at −80° C. To analyze DHA-H and DHA levels in the cell culture medium, 90 mm diameter plates were filled with 11 mL of complete cell culture medium containing 30 μM DHA-H or DHA in the presence or absence of attached HEK293T cells (5.10^5 cells/plate). The plates were incubated as described above and 1 ml aliquots of the plates were collected at 0, 6, 24, 48 and 72 hours. Aliquots of the cell culture medium were immediately centrifuged at 1000×g for 10 min at 4° C. to remove any cell suspension and the cell-free aliquots were stored at -20° C.
The cell lysates were subjected to ultrasound pulses (4 cycles, 10 s/cycle, 10 W) before lipid extraction. For brain analysis, the tissue of each animal was homogenized in cold PBS at 1:10 (p:v) in the presence of protease inhibitors (Roche), using a blade homogenizer (Polytron PT3100). Homogenates were ultrasounded, aliquots were made and stored at −80 ° C. Only one aliquot of each sample, containing about 8 mg protein/aliquot, was subjected to lipid extraction. Protein content before lipid extraction was determined by a modified Lowry method (Bio-rad DC Protein Assay).
Margaric acid (C17:0) was added to the samples subjected to lipid extraction as an internal standard and the lipids were extracted with chloroform:methanol (Eggers and Schwudke, 2016). Briefly, 0.75 volumes of the aqueous phase (which already contained the biological sample) were mixed with 2 volumes of chloroform and 1 volume of methanol. This mixture was vortexed for 1 minute and centrifuged at 1000×g for 10 minutes. The lower organic phase was collected and washed with 1 ml of PBS:methanol (1:1,v:v), and the resulting organic phase was dried under argon flow. The film containing the extracted lipids was transmethylated by incubation of the lipid mixture for 90 minutes at 100° C. in 3 ml of methanol:acetyl chloride (10:1, v:v), under an argon atmosphere (Christie, 1993). The resulting fatty acid methyl esters (FAMEs) were extracted with hexane, adding 3 ml of H2O and 1 ml of hexane to the transmethylation reaction, and vortexing the mixture thoroughly. After centrifugation at room temperature (1000×g for 10 min), the upper phase containing the FAMEs was collected and the remaining volume was washed twice with 1 ml of hexane.

The subject of series [2] is A549. Put plainly: IC50 in tumor cell cultures (cell survival, XTT / trypan blue). It is filed as cell-based. Particulars: A549 human lung adenocarcinoma cell line. How it is done:
(§1) Cell survival was analyzed in a Barker chamber using trypan blue vital exclusion staining (Scharlab) or by cell proliferation kit II (Roche). Briefly, the cells were seeded in 96-well plates at a density of 3 x 10^3 cells per well 24 h prior to treatment, and then cultured in the presence or absence of compounds of interest at the concentrations and for the times indicated in the figures. After different times, plaque viable cells were determined by the addition of XTT according to the manufacturers instructions. Cells were incubated at 37° C. in 5% CO2 until a constant color was developed and absorbance was recorded at 495 nm using a microplate reader with a reference wavelength of 650 nm (FLUOstar Omega, BMG LABTECH, Germany).
(§2) The anti-tumor activity of the different metabolites described in FIGS. 8 and 9 was determined by direct treatment with these molecules (HDA or C17:2 ω-6, HTA ω-3 or C17:3 ω-3, HTA ω-6 or C17:3 ω-6, NTA or C19:4 ω-6, NPA or C19:5 ω-3, and HPA or C21:5 ω-3) in tumor cell cultures, on which the IC50 value for each of these compounds was determined (Inhibitory Concentration 50: concentration of study compound that induces death of 50% of the tumor cell population).

Series [3] concerns MIA-PaCa 2. The description is as above. It is filed as cell-based. The following applies: Homo sapiens; MIA-PaCa 2 pancreatic cancer cell line. As to the method:
as §1, §2

Series [4] has as its system SF-295 glioma cells. As to the kind of experiment: Cell viability by violet crystal staining, 72 hours. It is filed as cell-based, human. Particulars: SF-295, 72 hours. How it is done: FIG. 14. Effect of 2OHOA sodium salt, OA and C17:1n-9 sodium salt on cell viability and proliferation of glioma cells. […] Viability was determined by violet crystal staining.
(§3) In order to evaluate the antiproliferative effect of C17:1n-9, its IC50, which corresponds to the amount of a compound needed to reduce cell viability in vitro by 50%, as well as its effect on the regulation of proteins involved in the mechanism of action of 2OHOA, were determined. […] Upon completion of treatment, IC50 was determined by violet crystal staining technique. […] The IC50 of 2OHOA was 1000 μM for non-tumor cells, MRC-5 and astrocytes.

For series [5], the system named is MRC-5 (human fibroblasts). The series is described as above. It is filed as cell-based. Particulars: MRC-5 non-tumor cells. As to the method: FIG. 15. Effect of 2OHOA sodium salt, C17:1n-9 sodium salt, and OA on cell viability and proliferation of non-tumor cells. Non-tumor cell viability curves (A1-A3) MRC-5 (human fibroblasts); and (B1-B3) mouse astrocytes treated with increasing doses of 2OHOA sodium salt (0-1000 μM) (A1 and B1); OA (0-300 μM) (A2 and B2); and C17:1n-9 sodium salt (0-300 μM) (A3 and B3) for 72 hours. Viability was determined by violet crystal staining.
as §3

Series [6] deals with BIP, CHOP, cJun phosphorylation, phosphorylation of Akt, cyclin D3. As to the kind of experiment: Western Blot of proliferation and death markers in glioma and non-tumor cell lines. It is filed as cell-based. The following applies: glioma cells, oxythiamine 2 mM, 72h. As to the method:
FIG. 16. Analysis of the effect of different fatty acids on markers of proliferation and death in different cell lines.
(§4) To study whether the metabolite C17:1n-9 can participate in the action of 2OHOA, the effect of pre-incubation with oxythiamine on cell survival and 2OHOA-regulated proteins was studied. To do this, the cell survival of different glioma and non-tumor cell lines treated with 2OHOA (400 μM, 72 hours) and pre-incubated or not with 2 mM […] (90 minutes) was analyzed by counting the cells with the vital exclusion stain with trypan blue. In addition, Western-blot 2OHOA-modulated proteins were studied. In glioma cells, a significant decrease in cell survival was observed after incubation with 2 mM oxythiamine for 72 hours.
On the technique in general: A western blot detects proteins with antibodies after separation by electrophoresis.

Series [7] deals with SF-295. As to the kind of experiment: Cell survival by trypan blue vital exclusion staining, 2OHOA and oxythiamine. It is filed as cell-based, human. The following applies: SF-295, 2 mM oxythiamine, 72 hours. As to the method:
FIG. 18. Effect of metabolite C17:1n-9 on the action of 2OHOA. […] Cell viability was determined by vital exclusion staining with trypan blue.
as §4

Regarding `CC/C=C\C/C=C\C/C=C\C/C=C\C/C=C\C/C=C\CCC(=O)O` [DHA, docosahexaenoic acid, reference compound], in series [1] (30 μM, up to 72 h), the “Levels in the culture medium in the presence of cell culture (uptake)” value was “decreased significantly at 48 and 72 h”.

By IC50 is commonly meant the midpoint of a concentration-inhibition curve. `CCCCC/C=C\C/C=C\CCCCCCC(=O)O` [HDA, (8Z,11Z)-heptadeca-8,11-dienoic acid]: the “Formation of the metabolite from its 2-hydroxylated prodrug in the presence of oxythiamine” value (“Formation of the metabolite” below) in series [1] was “inhibited”. Besides, the IC50 in series [2] amounted to 159 ± 10 µM; in series [3] it was 234 ± 18 µM.

As for `CC/C=C\C/C=C\C/C=C\CCCCCCC(=O)O` [HTA n-3, (8Z,11Z,14Z)-heptadeca-8,11,14-trienoic acid], the “Formation of the metabolite” value in series [1] was “inhibited”. Moreover, the IC50 in series [2] turned out to be 166 ± 30 µM; in series [3], 216 ± 24 µM.

Consider `CCCCC/C=C\C/C=C\C/C=C\CCCC(=O)O` [HTA n-6, (5Z,8Z,11Z)-heptadeca-5,8,11-trienoic acid], for which, in series [1], the “Formation of the metabolite” value was “inhibited”. The 50% inhibitory concentration (IC50) is 212 ± 48 µM in series [2] and 95 ± 31 µM in series [3].

In the case of `CC/C=C\C/C=C\C/C=C\C/C=C\C/C=C\CCC(=O)O` [NPA, (4Z,7Z,10Z,13Z,16Z)-nonadeca-4,7,10,13,16-pentaenoic acid], the “Formation of the metabolite” value in series [1] was “inhibited”. Further, the concentration for half-maximal inhibition (IC50) in series [2] came out at 143 ± 39 µM; in series [3], 91 ± 18 µM.

Consider `CCCCC/C=C\C/C=C\C/C=C\C/C=C\CCC(=O)O` [NTA, (4Z,7Z,10Z,13Z)-nonadeca-4,7,10,13-tetraenoic acid], for which the “Formation of the metabolite” value in series [1] is “inhibited”. The IC50 in series [2] turned out to be 216 ± 3 µM; in series [3], 62 ± 2 µM.

For `CCCCCCCC/C=C\CCCCCCCC(=O)[O-].[Na+]` [OA, reference compound], the values for the half-inhibitory concentration (IC50) in series [4] and in series [5] were 256 ± 5.79 µM and 236 ± 6.73 µM, respectively.

As to `Cc1ncc(C[n+]2csc(CCO)c2C)c(=O)[nH]1` [oxythiamine, reference compound], the entries for the “Inhibition of the increase in HPA levels from DHA-H” value in series [1] (oxythiamine 1 mM) and in series [1] (oxythiamine 10 mM) were “partial inhibition” and “almost total”, respectively. The “Effect on signaling proteins (Western Blot)” value in series [6] is reported as “in the same sense as 2OHOA, although milder”. The molecule also showed a Cell death in series [7] of 17.35±0.63%.
